Square brackets hold non-standard residues; d marks the D form. Peptide text beside a SMILES is read from it. dTrp(2-Me) = Cc1[nH]c2ccccc2c1C[C@@H](N)C(=O)O

The test has as its system plasma GH concentrations. Description: Growth hormone releasing activity in the infant rat (plasma GH by RIA). The class given is in vivo, Sprague Dawley rats. The note with it: male 10-day-old rats, 300 μg/kg subcutaneously, plasma 15 min later. The method, then:
Male 10-day-old Sprague Dawley rats, about 25 g body weight were used.
One hour before the experiments, pups were separated from their respective dams and were divided randomly into groups of eight each.
Pups were acutely challenged subcutaneously with 100 μl of solvent (DMSO, final dilution 1:300 in physiological saline), hexarelin (Tyr-Ala-His-D-Mrp-Ala-Trp-D-Phe-Lys-NH2, used as a reference drug), or new compounds (300 μg/kg) and killed by decapitation 15 min later.
Trunk blood was collected and centrifuged immediately. Plasma samples were stored at −20° C. until assayed for the determination of plasma GH concentrations.
Growth hormone concentrations in plasma were measured by RIA using materials provided by the National Institute of Diabetes, Digestive and Kidney Diseases (NIDDK) of the National Institute of Health U.S.A.
Values were expressed in terms of the NIDDK-rat-GH-RP-2 standard (potency 21 U/mg) as ng/ml of plasma.
The minimum detectable value of rat GH was about 1.0 ng/ml, and intraassay variability was about 6%.

Consider `CC(C)(N)C(=O)NC(Cc1c[nH]c2ccccc12)C(=O)NC(CC1CNc2ccccc21)NC=O` (racemic) [Example 48, H-Aib-(D)-Trp-(D)-3(R/S)-Dht-formyl], for which the GH (Table 6 test series) amounted to 17.49 ± 2.40 ng/mL. The same measure, in the same setting: the value for `CNC(C)(C)C(=O)NC(Cc1c[nH]c2ccccc12)C(=O)NC(CC1CNc2ccccc21)NC(C)=O` (racemic) [Example 50, N(Me)-Aib-(D)-Trp-(D)-3(R/S)-gDht-acetyl] was 11.17 ± 1.35 ng/mL; that for `CNC(C)(C)C(=O)NC(CC1CNc2ccccc21)C(=O)NC(Cc1c[nH]c2ccccc12)NC(C)=O` (racemic) [Example 51, N(Me)-Aib-(D)-3(R/S)-Dht-(D)-gTrp-acetyl] was 19.38 ± 4.16 ng/mL.

Take `CNC(C)(C)C(=O)NC(Cc1c[nH]c2ccccc12)C(=O)NC(Cc1c[nH]c2ccccc12)NC=O` [Example 3, N-Me-Aib-D-Trp-D-gTrp-CHO]: the GH (Table 2 test series) came out at 86.6 ± 12.6 ng/mL. Still for that read-out and setting: next, `CC(=O)NC(Cc1c[nH]c2ccccc12)NC(=O)C(Cc1c[nH]c2ccccc12)NC(=O)C(C)(C)N` [Example 4, H-Aib-D-Trp-D-gTrp-C(O)CH3]: 104.7 ± 13.5 ng/mL; `CNC(C)(C)C(=O)N[C@H](Cc1c[nH]c2ccccc12)C(=O)N[C@H](Cc1c[nH]c2ccccc12)NC(C)=O` [Example 5, N-Me-Aib-D-Trp-D-gTrp-C(O)CH3]: 175.5 ± 37.2 ng/mL. In turn, `O=CNC(Cc1c[nH]c2ccccc12)NC(=O)C(Cc1c[nH]c2ccccc12)NC(=O)C1CCNCC1` [Example 8, Isonipecotyl-D-Trp-D-gTrp-CHO] gave a GH (Table 3 test series) of 94.2 ± 8.6 ng/mL. The same measure, in the same setting: the value for `CC(=O)NC(Cc1c[nH]c2ccccc12)NC(=O)C(Cc1c[nH]c2ccccc12)NC(=O)C1CCNCC1` [Example 9, Isonipecotyl-D-Trp-D-gTrp-C(O)CH3] was 61.2 ± 10.8 ng/mL.

Take `CC(C)(N)C(=O)NC(Cc1c[nH]c2ccccc12)C(=O)NC(Cc1c[nH]c2ccccc12)NC=O` (centres unmarked) [Example 13, H-Aib-(D)-Trp-gTrp-CHO]: the GH (Table 1 test series) was determined as 58 ± 6.3 ng/mL. Compound `CCC(=O)NC(Cc1c[nH]c2ccccc12)NC(=O)C(Cc1c[nH]c2ccccc12)NC(=O)C(C)(C)N` [Example 19, Aib-D-Trp-gTrp-CO—CH2—CH3] displayed a GH (Table 3 test series) of 79.8 ± 22.4 ng/mL. Take `CC(C)(N)C(=O)NC(Cc1c[nH]c2ccccc12)C(=O)NC(Cc1c[nH]c2ccccc12)NC(=O)C1CCNCC1` [Example 22, Aib-D-Trp-gTrp-CO-piperidin-4-yl]: the GH (Table 3 test series) is 153.6 ± 30.6 ng/mL.

In the case of `CNC(C)(C)C(=O)NC(Cc1c[nH]c2ccccc12)C(=O)NC(Cc1c[nH]c2ccccc12)NC(=O)C1CCNCC1` [Example 39, N-Me-Aib-D-Trp-D-gTrp-Isonipecotyl], the GH (Table 4 test series) came out at 97.1 ± 21.0 ng/mL.

`CNC(C)(C)C(=O)N[C@H](Cc1c[nH]c2ccccc12)C(=O)N(C)[C@H](Cc1c[nH]c2ccccc12)NC(C)=O` [Example 40, N-Me-Aib-D-Trp-N-Me-D-gTrp-C(O)CH3] returned a GH (Table 4 test series) of 188.2 ± 28.5 ng/mL. `CC(C)(N)C(=O)NC(Cc1cccc2ccccc12)C(=O)NC(Cc1cccc2ccccc12)NC=O` (centres unmarked) [Example 42, H-Aib-(D)-1-Nal-g-(D)-1-Nal-formyl] showed a GH (Table 5 test series) of 25.05 ± 06.00 ng/mL. Still for that read-out and setting: the value for `CC(C)(N)C(=O)NC(Cc1ccc2ccccc2c1)C(=O)NC(Cc1ccc2ccccc2c1)NC=O` (centres unmarked) [Example 43, H-Aib-(D)-2-Nal-g-(D)-2-Nal-formyl] was 37.33 ± 19.74 ng/mL. Same read-out and setting: next, `CC(C)(N)C(=O)NC(Cc1ccc2ccccc2c1)C(=O)NC(Cc1c[nH]c2ccccc12)NC=O` (centres unmarked) [Example 45, H-Aib-(D)-2-Nal-(D)-gTrp-formyl]: 13.91 ± 03.87 ng/mL; `CC(C)(N)C(=O)N[C@H](Cc1c[nH]c2ccccc12)C(=O)NC(Cc1cccc2ccccc12)NC=O` (some centres unmarked) [Example 46, H-Aib-(D)-Trp-g-(D)-1-Nal-formyl]: 8.26 ± 01.09 ng/mL; `CC(C)(N)C(=O)NC(Cc1c[nH]c2ccccc12)C(=O)NC(Cc1ccc2ccccc2c1)NC=O` [Example 47, H-Aib-D-Trp-g-D-2-Nal-formyl]: 9.04 ± 04.03 ng/mL. As for `CN(C)C(C)(C)C(=O)NC(Cc1c[nH]c2ccccc12)C(=O)NC(Cc1c[nH]c2ccccc12)NC=O` (centres unmarked) [Example 52, N(Me)2-Aib-(D)-Trp-(D)-gTrp-formyl], the GH (Table 7 test series) was found to be 121.43 ± 29 ng/mL. Still for that read-out and setting: the value for `CC(=O)NC(Cc1c[nH]c2ccccc12)NC(=O)C(Cc1c[nH]c2ccccc12)NC(=O)C(C)(C)N(C)C` (centres unmarked) [Example 53, N(Me)2-Aib-(D)-Trp-(D)-gTrp-acetyl] was 26.80 ± 5.64 ng/mL.

`NC1(C(=O)NC(Cc2c[nH]c3ccccc23)C(=O)NC(Cc2c[nH]c3ccccc23)NC=O)CC1` (centres unmarked) [Example 54, H-Acc^3-(D)-Trp-(D)-gTrp-formyl]: the GH (Table 9 test series) was determined as 7.89 ± 3.20 ng/mL. Still for that read-out and setting: the value for `NC1(C(=O)NC(Cc2c[nH]c3ccccc23)C(=O)NC(Cc2c[nH]c3ccccc23)NC=O)CCCC1` (centres unmarked) [Example 55, H-Acc^5-(D)-Trp-(D)-gTrp-formyl] was 11.46 ± 1.18 ng/mL; that for `NC1(C(=O)NC(Cc2c[nH]c3ccccc23)C(=O)NC(Cc2c[nH]c3ccccc23)NC=O)CCCCC1` (centres unmarked) [Example 56, H-Acc^6-(D)-Trp-(D)-gTrp-formyl] was 8.49 ± 0.40 ng/mL. Still for that read-out and setting: next, `CCCC(N)(CCC)C(=O)NC(Cc1c[nH]c2ccccc12)C(=O)NC(Cc1c[nH]c2ccccc12)NC=O` (centres unmarked) [Example 57, H-Dpg-(D)-Trp-(D)-gTrp-formyl]: 18.38 ± 2.88 ng/mL. As for `CCNC(=O)NC(Cc1c[nH]c2ccccc12)NC(=O)C(Cc1c[nH]c2ccccc12)NC(=O)C(C)(C)N` (centres unmarked) [Example 58, H-Aib-(D)-Trp-(D)-gTrp-C(O)NHCH2CH3], the GH (Table 10 test series) amounted to 376.48 ± 43.24 ng/mL. Regarding `CCNC(=O)NC(Cc1c[nH]c2ccccc12)NC(=O)C(Cc1c[nH]c2ccccc12)NC(=O)C(C)(C)NC` (centres unmarked) [Example 59, N-Me-Aib-(D)-Trp-(D)-gTrp-C(O)NHCH2CH3], the GH (Table 10 test series) stood at 179.53 ± 24.65 ng/mL. Consider `CC(C)(N)C(=O)NC(C)(Cc1c[nH]c2ccccc12)C(=O)NC(Cc1c[nH]c2ccccc12)NC=O` [Example 60, H-Aib-(R)—Me-Trp-(D)-gTrp-formyl], for which the GH (Table 8 test series) was 21.02 ± 3.43 ng/mL. For `CC(Cc1c[nH]c2ccccc12)(NC=O)NC(=O)C(Cc1c[nH]c2ccccc12)NC(=O)C(C)(C)N` [Example 61, H-Aib-(D)-Trp-(R)-Me-gTrp-formyl], under “Table 8 test series”, the GH came out at 152.28 ± 43.76 ng/mL.

Take `CNC(C)(C)C(=O)NC(Cc1c[nH]c2ccccc12)C(=O)NC(C)(Cc1c[nH]c2ccccc12)NC(C)=O` [Example 62, H-Me-Aib-(D)-Trp-(R)-Me-gTrp-acetyl]: where the note is “Table 8 test series”, the GH was 171.78 ± 10.32 ng/mL.

As to `Cc1[nH]c2ccccc2c1C[C@@H](NC(=O)[C@@H](N)Cc1cnc[nH]1)C(=O)N[C@@H](C)C(=O)N[C@@H](Cc1c[nH]c2ccccc12)C(=O)N[C@H](Cc1ccccc1)C(=O)N[C@@H](CCCCN)C(N)=O` [HEXARELIN, Tyr-Ala-His-D-Mrp-Ala-Trp-D-Phe-Lys-NH2, reference compound] (H-H[dTrp(2-Me)]AW[dF]K-NH2), the GH (Table 1 test series) is 202 ± 32.7 ng/mL; the GH (Table 2 test series) came to 134.5 ± 27.2 ng/mL; the GH (Table 3 test series) is 114.7 ± 8.4 ng/mL; the GH (Table 4 test series) worked out at 114.5 ± 12.9 ng/mL; the GH (Table 5 test series) was 276.01 ± 23.5 ng/mL; the GH (Table 6 test series) came to 91.61 ± 4.09 ng/mL. Further, the GH (Table 7 test series) turned out to be 172.5 ± 38.53 ng/mL, the GH (Table 8 test series) was 172.5 ± 38.53 ng/mL, the GH (Table 9 test series) was found to be 89.91 ± 3.04 ng/mL and the GH (Table 10 test series) amounted to 172.5 ± 38.53 ng/mL. Compound “H-Aib-(D)-1-Nal-(D)-gTrp-formyl [Example 44]” had a GH (Table 5 test series) of 15.04 ± 03.30 ng/mL. “H-Aib-(D)-3(R/S)-Dht-g-(D)-Trp-formyl [Example 49]” had a GH (Table 6 test series) of 24.35 ± 4.85 ng/mL.

For “H-Aib-D-Trp-N-Me-D-gTip-C(O)CH3 [Example 41]”, for the setting “Table 4 test series”, the GH is 75.4 ± 15.0 ng/mL.

For the compound Pip-D-Trp-D-gTrp-C(O)CH3 [Example 7], the GH (Table 3 test series) came to 53.1 ± 6.6 ng/mL.

For the compound Pip-D-Trp-D-gTrp-CHO [Example 6], the GH (Table 3 test series) was determined as 109.7 ± 10.1 ng/mL.

The values are drawn from patent US6861409B2, “Growth hormone secretagogues” (Zentaris AG, priority 2000, dated 2005).
